# Source: US6492360B1, “Phthalazine derivatives phosphodiesterase 4 inhibitors” (Zambon Group S.p.A., priority 1998, dated 2002)
# What was measured:
# [1] = molecular target: PDE 4; assay: PDE 4 enzyme inhibition (SPA); format: biochemical; conditions: PDE 4 purified from human PMNs; cAMP 1 μM
# Procedure: a) Human Polymorphonuclear Leukocyte Isolation
# The polymorphonuclear leukocytes (PMNs) were isolated from peripheral blood of healthy volunteers according to Boyum A. (Scand. J. Immunol., 1976, 5th suppl., 9). Briefly, the PMNs were purified by Ficoll-Paque gradient centrifugation followed by sedimentation on dextran and the erythrocyte contamination was eliminated by hypotonic lysis.
# b) PDE 4 Enzyme Purification
# The human PMNs were suspended in TRIS/HCl buffer (10 mM, pH 7.8) containing MgCl2 (5 mM), EGTA (4 mM), mercaptoethanol (5 mM), TRITON-X100 (1%), pepstatin A (1 μM), PMSF (100 μM) and leupeptin (1 μM), and homogenised by Polytron homogeniser. The homogenate was centrifuged at 25,000×g for 30 minutes at 4° C. and the PDE 4 enzyme was purified by ion exchange chromatography using the FPLC technique according to Schudt C. et al. (Naunyn-Schmidberg's Arch. Pharmacol., 1991, 334, 682). The supernatant was seeded on a UNO Q12 column (Bio-Rad) and the enzyme was eluted by sodium acetate linear gradient from 50 mM to 1M using a flow rate of 4.5 ml/minutes. The fractions containing enzymatic activity were pooled, dialysed against water and concentrated. The PDE 4 enzyme was stored at, −20° C. in the presence of ethylene glycol (30% v/v) until the use.
# The enzyme activity was evaluated with a Scintillation Proximity Assay (SPA) kit (Amersham). The enzymatic reaction was performed in a final volume of 100 μl of TRIS/HCl buffer (50 mM, pH 7.5), MgCl2 (8.3 mM), EGTA (1.7 mM), cAMP (1 μM) and [^3H]cAMP (˜100.000 dpm) as tracer. The compounds of the invention, the reference ones or the vehicle were added at different concentrations. As reference compounds 6,7-dimethoxy-4-pyridin-4-yl-methyl)2H-phthalazin-1-one (reference 1) and 6,7-dimethoxy-4-(piperidin-4-yl-methyl)2H-phthalazin-1-one (reference 2) embraced by the general formula of the patent application EP-0 722 936 (in the name of Eisai) were used. The reaction was started by adding 1.5 μg protein and incubated for 40 minutes at 30° C. SPA beads (50 μl) containing 18 mM zinc sulphate were added to stop the reaction and after 20 minutes at room temperature the radioactivity was measured using a scintillation counter.
# The IC50 value refers to the nanomolar concentration of the compound required to inhibit cyclic nucleotide hydrolysis by 50%, and it was calculated by non-linear regression analysis.
# [2] = molecular target: T1, PDE 3 (Homo sapiens, UniProt Q14432); assay: PDE 3 enzyme inhibition (SPA); format: biochemical; conditions: 10^−6 M; PDE 3 from human platelets; cAMP
# T1 construct: The fractions containing the enzymatic activities (PDE 3 or PDE 5) were pooled; from tissue; host or cells: human platelets from platelet rich plasma of healthy volunteers
# T1 sequence (Q14432 whole entry): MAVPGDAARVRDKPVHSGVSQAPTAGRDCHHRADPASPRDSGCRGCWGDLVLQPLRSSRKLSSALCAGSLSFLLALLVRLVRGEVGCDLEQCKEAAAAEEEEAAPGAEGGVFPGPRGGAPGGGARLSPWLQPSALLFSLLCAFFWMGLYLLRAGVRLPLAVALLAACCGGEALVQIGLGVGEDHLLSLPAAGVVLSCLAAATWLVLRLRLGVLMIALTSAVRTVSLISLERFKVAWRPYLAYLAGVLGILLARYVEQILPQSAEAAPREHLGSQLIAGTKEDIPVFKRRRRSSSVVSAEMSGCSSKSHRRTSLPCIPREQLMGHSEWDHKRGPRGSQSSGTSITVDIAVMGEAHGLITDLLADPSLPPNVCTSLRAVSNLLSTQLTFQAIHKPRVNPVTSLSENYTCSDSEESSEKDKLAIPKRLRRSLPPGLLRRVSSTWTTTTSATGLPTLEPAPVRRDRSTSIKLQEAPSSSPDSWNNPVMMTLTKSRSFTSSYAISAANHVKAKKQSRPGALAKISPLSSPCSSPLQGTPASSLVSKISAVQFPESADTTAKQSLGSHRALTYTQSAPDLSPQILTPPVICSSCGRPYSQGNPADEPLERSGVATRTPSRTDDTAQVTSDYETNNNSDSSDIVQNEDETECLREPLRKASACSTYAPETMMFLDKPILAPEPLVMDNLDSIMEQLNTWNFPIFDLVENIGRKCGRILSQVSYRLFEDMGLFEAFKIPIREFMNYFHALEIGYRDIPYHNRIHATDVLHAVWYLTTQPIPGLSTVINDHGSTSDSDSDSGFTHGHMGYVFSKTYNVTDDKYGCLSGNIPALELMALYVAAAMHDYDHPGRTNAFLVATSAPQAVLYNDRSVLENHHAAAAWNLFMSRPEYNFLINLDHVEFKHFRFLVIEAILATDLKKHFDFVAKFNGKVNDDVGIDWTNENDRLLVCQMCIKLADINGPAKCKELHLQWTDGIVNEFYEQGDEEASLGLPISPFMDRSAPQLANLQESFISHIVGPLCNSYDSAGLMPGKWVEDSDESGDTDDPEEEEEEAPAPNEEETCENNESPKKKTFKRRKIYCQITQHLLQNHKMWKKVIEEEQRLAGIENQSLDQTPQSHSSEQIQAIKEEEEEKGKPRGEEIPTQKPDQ
# Procedure: (§1) a) Human Platelet Preparation
# (§2) Human platelets were prepared from platelet rich plasma (PRP) obtained from healthy volunteers. The PRP was centrifuiged at 2,200 rpm for 15 minutes at 4° C. and the pellet was suspended in lysis solution (15 ml; 155 mM NH4Cl, 10 mM KHCO3 and 0.1 mM Na2EDTA, pH=7.4) and incubated for 10 minutes on ice-bath to remove the erythrocyte contamination. After centrifugation at 1,400 rpm for 10 minutes at 4° C., platelets were suspended in 10 ml of […], 5 mM KCl, 1 mM MgSO4, 10 mM glucose, 10 mM HEPES (pH 7.4) and 0.05 U/ml of hirudin, and stored at −20° C. until homogenisation. Platelets were thawed and 50 ml of 20 mM TRIS (pH=6.5) containing 5 mM β-mercapto-ethanol, 2 mM EDTA, 50 mM sodium acetate and 50 μM PMSF (homogenisation buffer) were added. The platelet suspension was then homogenised by a Polytron homogeniser (Polytron PT 1200) for 20 seconds. The homogenate was centrifuged at 14,500 rpm for 20 minutes at 4° C., and the supernatant was applied to an UNO Q12 column (Bio-Rad). The PDE 3 and PDE 5 were eluted by sodium acetate linear gradient from 0.05M to 1M using a flow rate of 4.5 ml/minutes. The fractions containing the enzymatic activities (PDE 3 or PDE 5) were pooled, dialysed against water and concentrated 10 times by ultrafiltration. The PDE 3 and PDE 5 fractions were stored at −20° C. in the presence of ethylene glycol (30% v/v) until use.
# (§3) b) PDE 3 and PDE 5 Activity Assay
# (§4) The enzyme activity was evaluated with a Scintillation Proximity Assay (SPA) kit (Amersham). The enzymatic reaction was performed in a final volume of 100 μl of TRIS/HCl buffer (50 mM, pH7.5), MgCl2 (8.3 mM), EGTA (1.7 mM), cAMP (for PDE 3 assay) or cGMP (for PDE 5 assay) (1 μM), [^3H]cAMP or [^3H]cGMP (10 μl ), and 10 μl of the compounds of the invention or vehicle. The reaction was started by adding the enzyme (1.0 μg) and incubated for 40 minutes at 30° C. SPA beads (50 μl) containing 18 mM zinc sulphate were added to stop the reaction and after 20 minutes at room temperature the radioacticity was measured using a scintillation counter.
# (§5) The compounds were tested at 10^−6M and the results are expressed as percent of inhibition.
# [3] = molecular target: T2, PDE 5 (Homo sapiens, UniProt O76074); assay: PDE 5 enzyme inhibition (SPA); format: biochemical; conditions: 10^−6 M; PDE 5 from human platelets; cGMP
# T2 construct: The fractions containing the enzymatic activities (PDE 3 or PDE 5) were pooled; from tissue; host or cells: human platelets from platelet rich plasma of healthy volunteers
# Procedure: as §1, §2, §3, §4, §5
# [4] = system: TNFα release from human monocytes; assay: TNFα release inhibition in LPS-stimulated monocytes; format: cell-based; conditions: Monocyte, LPS 1 ng/ml, 16 hours, ELISA
# Procedure: a) Human Monocyte Isolation
# The monocytes were isolated from peripheral blood of healthy volunteers according to the procedure of Schreek L. et al. (J. Natl. Cancer Inst., 1964, 32, 507). The monocyte and lymphocyte population was isolated by Ficoll gradient centrifugation, and the cells diluted at a density of 2.5×10^6 cells/ml in RPMI1640 incubation medium containing 1% heat-inactivated foetal calf serum, penicillin (100 U/ml) and streptomycin (100 μg/ml) were plated in 24-wells plates (1 ml/well) and left to adhere for 1 hour at 37° C. with 5% CO2. Non-adherent lymphocytes were removed by aspiration and the monocytes adhered to the plate were used in the next step.
# The TNFα release from human monocytes was measured according to the method of Barnette M. et al. (Biochemical Pharmacology, 1996, 51, 949). The monocytes were incubated for 1 hour with 1 ml of RPMI1640 incubation medium (1% beat-inactivated foetal calf serum, 100 U/ml penicillin and 100 μg/ml streptomyc in) containing different concentrations of the products according to the present invention or the vehicle for the controls. The TNFα release from monocytes was induced by adding 1 ng/ml of LPS (lipopolysaccharide from E. Coli) and after 16 hours of incubation at 37° C., 5% CO2, the incubation medium was removed, centrifuged and the supernatant stored at −80° C. until TNFα assay by ELISA kit (Amersham). The results are expressed as IC50 following the same calculation explained in example 147.
IC50 [1],inhibition at 1 µM [2],inhibition at 1 µM [3],IC50 [4],SMILES
225 ± 35 nM,20%,8%,,"COc1ccc2c(Cc3c(Cl)cncc3Cl)nn(CCc3ccccc3)c(=O)c2c1 [Compound 22, 4-(3,5-Dichloro-pyridin-4-ylmethyl)-7-methoxy-2-phenethyl-2H-phthalazin-1-one]"
51 ± 7 nM,12%,35%,48 ± 14 nM,"COc1ccc2c(c1)CN(C(C)=O)N=C2Cc1c(Cl)cncc1Cl [Compound 8, 1-[4-(3,5-Dichloro-pyridin-4-ylmethyl)-7-methoxy-1H-phthalazin-2-yl]-ethanone]"
,2%,33%,,"FC(F)Oc1ccc2c(Cc3c(Cl)cncc3Cl)nnc(-n3cncn3)c2c1 [Compound 54, 1-(3,5-Dichloro-pyridin-4-ylmethyl)-6-difluoromethoxy-4-[1,2,4]triazol-1-yl-phthalazine]"
,-10%,10%,9.1 ± 2.9 nM,"COc1ccc2c(Cc3c(Cl)cncc3Cl)nnc(N3CCCC3)c2c1 [Compound 49, 1-(3,5-Dichloropyridin-4-ylmethyl)-6-methoxy-4-pyrrolidin-1-yl-phthalazine]"
48 ± 12 nM,15%,9%,,"COc1ccc2c(Cc3c(Cl)cncc3Cl)nnc(C#Cc3ccccc3)c2c1 [Compound 27, 1-(3,5-Dichloro-pyridin-4-ylmethyl)-6-methoxy-4-phenylethynyl-phthalazine]"
158 ± 34 nM,5%,11%,,"CCn1nc(Cc2c(Cl)cncc2Cl)c2ccc(OC)cc2c1=O [Compound 20, 4-(3,5-Dichloro-pyridin-4-ylmethyl)-2-ethyl-7-methoxy-2H-phthalazin-1-one]"
364 ± 67 nM,-9%,14%,260 ± 44 nM,"COc1ccc2c(Cc3c(Cl)cncc3Cl)nnc(CN3CCOCC3)c2c1 [Compound 56, 1-(3,5-Dichloro-pyridin-4-ylmethyl)-6-methoxy-4-morpholin-4-ylmethyl-phthalazine]"
14 ± 2 nM,,0%,,"COc1ccc2c(Cc3c(Cl)cncc3Cl)nnc(-c3nccs3)c2c1 [Compound 26, 1-(3,5-Dichloro-pyridin-4-ylmethyl)-6-methoxy-4-thiazol-2-yl-phthalazine]"
93 ± 29 nM,-2%,1%,,"C#Cc1nnc(Cc2c(Cl)cncc2Cl)c2ccc(OC)cc12 [Compound 60, 1-(3,5-Dichloro-pyridin-4-ylmethyl)-4-ethynyl-6-methoxy-phthalazine]"
241 ± 73 nM,-4%,1%,73 ± 21 nM,"COc1ccc2c(Cc3c(Cl)cncc3Cl)nnc(-n3cncn3)c2c1 [Compound 29, 1-(3,5-Dichloro-pyridin-4-ylmethyl)-6-methoxy-4-[1,2,4]triazol-1-yl-phthalazine]"
209 ± 26 nM,19%,21%,,"COc1ccc2c(Cc3c(Cl)cncc3Cl)nn(CCCCCc3ccccc3)c(=O)c2c1 [Compound 23, 4-(3,5-Dichloro-pyridin-4-ylmethyl)-7-methoxy-2-(5-phenyl-pentyl)-2H-phthalazin-1-one]"
131 ± 24 nM,12%,21%,,"CNC(=O)N1Cc2cc(OC)ccc2C(Cc2c(Cl)cncc2Cl)=N1 [Compound 17, 4-(3,5-Dichloro-pyridin-4-ylmethyl)-7-methoxy-1H-phthalazine-2-carboxylic acid methyl-amide]"
132 ± 30 nM,-2%,1%,62 ± 17 nM,"COc1ccc2c(Cc3c(Cl)cncc3Cl)nnc(N3CCOCC3)c2c1 [Compound 38, 1(3,5-Dichloro-pyridin-4-ylmethyl)-6-methoxy-4-morpholin-4-yl-phthalazine]"
21 ± 4 nM,15%,0%,,"COc1ccc2c(c1)CN(S(C)(=O)=O)N=C2Cc1c(Cl)cncc1Cl [Compound 15, 4-(3,5-Dichloro-pyridin-4-ylmethyl)-2-methanesulfonyl-7-methoxy-1,2-dihydro-phthalazine]"
26 ± 3 nM,17%,10%,,"COc1ccc2c(c1)CN(C(=O)C(C)C)N=C2Cc1c(Cl)cncc1Cl [Compound 11, 1-[4-(3,5-Dichloro-pyridin-4-ylmethyl)-7-methoxy-1H-phthalazin-2-yl]-2-methyl-propan-1-one]"
37 ± 6 nM,7%,21%,46 ± 15 nM,"COc1ccc2c(Cc3c(Cl)cncc3Cl)nnc(-c3ccccc3)c2c1 [Compound 5, 1-(3,5-Dichloro-pyridin-4-ylmethyl)-6-methoxy-4-phenyl-phthalazine]"
